Data published in PubChem BioAssay AID328 (DTP/NCI, 2004).
Values joined by “and” are separate entries in the source; they are usually repeats but may differ in a detail not shown here. Equal entries are not always repeated. Inconclusive results and toxic doses are left out. Non-standard residues stand in square brackets, D forms with d. Residues, ends and D or L forms follow the SMILES beside them. ξ: configuration not given here. *: point of attachment. Nphe = O=C(O)CNCc1ccccc1; Boc = CC(C)(C)OC(=O)*; ξL = CC(C)CC(N)C(=O)O; ξM = CSCCC(N)C(=O)O; Ms = CS(=O)(=O)*

Test system: BDF1 mice, P388 leukemia ip, median survival T/C
Test: NCI In Vivo Anticancer Drug Screen. Data for tumor model P388 Leukemia (intraperitoneal) in B6D2F1 (BDF1) mice
Details: endpoint: median survival time, higher = longer survival
Outline: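 Steps: implant the tumour, treat one group with compound and another with vehicle, record survival, then divide treated by control.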

[1] = dose: 12.5 mg/kg/injection, schedule: Q01DX009 (ip), vehicle: saline
[2] = dose: 25.0 mg/kg/injection, schedule: Q01DX009 (ip), vehicle: saline
[3] = dose: 50.0 mg/kg/injection, schedule: Q01DX009 (ip), vehicle: saline
[4] = dose: 200.0 mg/kg/injection, schedule: Q01DX009 (ip), vehicle: saline
[5] = dose: 50.0 mg/kg/injection, schedule: Q01DX009 (ip), vehicle: Klucel (hydroxypropylcellulose) (HPC)
[6] = dose: 100.0 mg/kg/injection, schedule: Q01DX009 (ip), vehicle: Klucel (hydroxypropylcellulose) (HPC)
[7] = dose: 25.0 mg/kg/injection, schedule: Q04DX003 (ip), vehicle: saline
[8] = dose: 50.0 mg/kg/injection, schedule: Q04DX003 (ip), vehicle: saline
[9] = dose: 50.0 mg/kg/injection, schedule: Q01DX009 (ip), vehicle: saline with Tween-80
[10] = dose: 100.0 mg/kg/injection, schedule: Q01DX009 (ip), vehicle: saline with Tween-80
[11] = dose: 200.0 mg/kg/injection, schedule: Q01DX009 (ip), vehicle: saline with Tween-80
[12] = dose: 100.0 mg/kg/injection, schedule: Q04DX003 (ip), vehicle: Klucel (hydroxypropylcellulose) (HPC)
[13] = dose: 200.0 mg/kg/injection, schedule: Q01DX009 (ip), vehicle: Klucel (hydroxypropylcellulose) (HPC)
[14] = dose: 400.0 mg/kg/injection, schedule: Q01DX009 (ip), vehicle: Klucel (hydroxypropylcellulose) (HPC)
[15] = dose: 50.0 mg/kg/injection, schedule: Q04DX003 (ip), vehicle: saline with Tween-80
[16] = dose: 25.0 mg/kg/injection, schedule: Q01DX009 (ip), vehicle: Klucel (hydroxypropylcellulose) (HPC)
[17] = dose: 100.0 mg/kg/injection, schedule: Q01DX009 (ip), vehicle: saline

## CCOC(=O)c1[nH]c(C)nc1/N=N/N(C)C
[1]
  T/C: 114 % of control
[2]
  T/C: 103 % of control and 121 % of control
[3]
  T/C: 111 % of control
[4]
  T/C: 154 % of control and 180 % of control

## Cc1cnccc1Br
dose: 12.5 mg/kg/injection, schedule: Q04DX003 (ip), vehicle: water
  T/C: 103 % of control
dose: 25.0 mg/kg/injection, schedule: Q04DX003 (ip), vehicle: water
  T/C: 103 % of control
dose: 50.0 mg/kg/injection, schedule: Q04DX003 (ip), vehicle: water
  T/C: 103 % of control
dose: 100.0 mg/kg/injection, schedule: Q04DX003 (ip), vehicle: water
  T/C: 97 % of control
dose: 200.0 mg/kg/injection, schedule: Q04DX003 (ip), vehicle: water
  T/C: 94 % of control

## CC1(C)CCSC(/C=C/c2ccccc2)=N1
[5]
  T/C: 103 % of control
[6]
  T/C: 121 % of control

## OCCN1CCN(CCCN2c3ccccc3CCc3ccccc32)CC1
[7]
  T/C: 103 % of control and 117 % of control
[8]
  T/C: 100 % of control and 107 % of control
dose: 100.0 mg/kg/injection, schedule: Q04DX003 (ip), vehicle: saline
  T/C: 115 % of control and 116 % of control

## CS(=O)(=O)Nc1ccccc1-c1nc2ccccc2c(=O)o1
dose: 25.0 mg/kg/injection, schedule: Q01DX009 (ip), vehicle: saline with Tween-80
  T/C: 105 % of control
[9]
  T/C: 104 % of control
[10]
  T/C: 105 % of control
[11]
  T/C: 103 % of control

## CC1(C)C(N2CCOCC2)C(c2ccccc2)S1(=O)=O (stereo not given)
dose: 100.0 mg/kg/injection, schedule: Q01DX001 (ip), vehicle: saline with Tween-80
  T/C: 100 % of control
dose: 400.0 mg/kg/injection, schedule: Q01DX001 (ip), vehicle: saline with Tween-80
  T/C: 95 % of control

## CC(C)CC(NC(=O)CN(Cc1ccccc1)S(C)(=O)=O)C(=O)O (stereo not given) (Ms-[Nphe]-[ξL]-OH)
dose: 6.25 mg/kg/injection, schedule: Q04DX003 (ip), vehicle: other
  T/C: 110 % of control
dose: 12.5 mg/kg/injection, schedule: Q04DX003 (ip), vehicle: other
  T/C: 97 % of control
dose: 25.0 mg/kg/injection, schedule: Q04DX003 (ip), vehicle: other
  T/C: 113 % of control
dose: 50.0 mg/kg/injection, schedule: Q01DX009 (ip), vehicle: other
  T/C: 151 % of control
dose: 50.0 mg/kg/injection, schedule: Q04DX003 (ip), vehicle: other
  T/C: 95 % of control and 98 % of control
dose: 100.0 mg/kg/injection, schedule: Q04DX003 (ip), vehicle: other
  T/C: 100 % of control and 103 % of control
dose: 200.0 mg/kg/injection, schedule: Q01DX009 (ip), vehicle: other
  T/C: 89 % of control
dose: 200.0 mg/kg/injection, schedule: Q04DX003 (ip), vehicle: other
  T/C: 98 % of control and 106 % of control
dose: 400.0 mg/kg/injection, schedule: Q04DX003 (ip), vehicle: other
  T/C: 106 % of control

## O=c1ccccn1C/C(=N\O)c1ccccc1
[6]
  T/C: 95 % of control
[12]
  T/C: 100 % of control
[13]
  T/C: 95 % of control
dose: 200.0 mg/kg/injection, schedule: Q04DX003 (ip), vehicle: Klucel (hydroxypropylcellulose) (HPC)
  T/C: 95 % of control
[14]
  T/C: 100 % of control
dose: 400.0 mg/kg/injection, schedule: Q04DX003 (ip), vehicle: Klucel (hydroxypropylcellulose) (HPC)
  T/C: 100 % of control

## COc1cccc(C=O)c1OC
[15]
  T/C: 112 % of control
dose: 100.0 mg/kg/injection, schedule: Q04DX003 (ip), vehicle: saline with Tween-80
  T/C: 107 % of control
dose: 200.0 mg/kg/injection, schedule: Q04DX003 (ip), vehicle: saline with Tween-80
  T/C: 112 % of control
dose: 400.0 mg/kg/injection, schedule: Q04DX003 (ip), vehicle: saline with Tween-80
  T/C: 107 % of control

## CCCCCCC(NC(C)=O)C(C)=O (stereo not given)
[9]
  T/C: 104 % of control
[10]
  T/C: 101 % of control
[11]
  T/C: 101 % of control

## CC(=O)Oc1c(C)c2c(O)c3c1C1=C(OCOC1=C(C)C3=O)C(C)=CC(C)(O)C(O)C(C)C(O)C1C(=O)OC(C(C)/C=C\C=C(C)C(=O)N2)C(C)C1O (stereo not given)
[6]
  T/C: 119 % of control
[13]
  T/C: 123 % of control
[14]
  T/C: 110 % of control

## CSCCC(NC(=O)CNC(=O)OC(C)(C)C)C(=O)NCC(=O)O (stereo not drawn) (Boc-Gly-[ξM]-Gly-OH)
dose: 50.0 mg/kg/injection, schedule: Q01DX005 (ip), vehicle: saline with Tween-80
  T/C: 98 % of control
dose: 100.0 mg/kg/injection, schedule: Q01DX005 (ip), vehicle: saline with Tween-80
  T/C: 95 % of control
dose: 200.0 mg/kg/injection, schedule: Q01DX005 (ip), vehicle: saline with Tween-80
  T/C: 95 % of control

## CN(Cc1ccccc1)/N=N/c1nc[nH]c1C(N)=O
[16]
  T/C: 95 % of control
[5]
  T/C: 110 % of control
[6]
  T/C: 110 % of control
[13]
  T/C: 100 % of control

## CSc1nc(N)cc(NC(=O)CCl)n1
[16]
  T/C: 113 % of control
[5]
  T/C: 95 % of control
[9]
  T/C: 100 % of control
dose: 50.0 mg/kg/injection, schedule: Q04DX003 (ip), vehicle: Klucel (hydroxypropylcellulose) (HPC)
  T/C: 113 % of control
[6]
  T/C: 122 % of control
[10]
  T/C: 100 % of control
[12]
  T/C: 118 % of control

## C[n+]1cccc2ccccc21
[1]
  T/C: 95 % of control
dose: 12.5 mg/kg/injection, schedule: Q04DX003 (ip), vehicle: saline
  T/C: 104 % of control
[2]
  T/C: 100 % of control and 105 % of control
[7]
  T/C: 104 % of control
[3]
  T/C: 100 % of control and 110 % of control
[8]
  T/C: 109 % of control
[17]
  T/C: 109 % of control

## CNc1nc2ncn(C)c2c(=O)[nH]1
[17]
  T/C: 100 % of control
[4]
  T/C: 109 % of control
dose: 400.0 mg/kg/injection, schedule: Q01DX009 (ip), vehicle: saline
  T/C: 95 % of control

## BrC1c2cccc3cccc(c23)C1Br (stereo not given)
[10]
  T/C: 150 % of control
[11]
  T/C: 88 % of control

## CN(C)CCCOC(=O)CC(C)(C)C
dose: 50.0 mg/kg/injection, schedule: Q01DX005 (ip), vehicle: water
  T/C: 91 % of control
dose: 100.0 mg/kg/injection, schedule: Q01DX005 (ip), vehicle: water
  T/C: 94 % of control

## COc1cc2cc(c1Cl)NC(=O)/C=C/[C@]1(C)O[C@H]1[C@H](C)[C@@H]1C[C@@](O)(NC(=O)O1)[C@H](OC)C=C/C=C(\C)C2
dose: 0.2 micrograms/kg/injection, schedule: Q01DX009 (ip), vehicle: saline + alcohol
  T/C: 100 % of control
dose: 0.4 micrograms/kg/injection, schedule: Q01DX009 (ip), vehicle: saline + alcohol
  T/C: 100 % of control
dose: 0.8 micrograms/kg/injection, schedule: Q01DX009 (ip), vehicle: saline + alcohol
  T/C: 90 % of control
dose: 1.6 micrograms/kg/injection, schedule: Q01DX009 (ip), vehicle: saline + alcohol
  T/C: 100 % of control
dose: 3.1 micrograms/kg/injection, schedule: Q01DX009 (ip), vehicle: saline + alcohol
  T/C: 115 % of control
dose: 6.2 micrograms/kg/injection, schedule: Q01DX009 (ip), vehicle: saline + alcohol
  T/C: 115 % of control
dose: 12.5 micrograms/kg/injection, schedule: Q01DX009 (ip), vehicle: saline + alcohol
  T/C: 87 % of control and 110 % of control
dose: 25.0 micrograms/kg/injection, schedule: Q01DX009 (ip), vehicle: saline + alcohol
  T/C: 87 % of control and 110 % of control
dose: 50.0 micrograms/kg/injection, schedule: Q01DX009 (ip), vehicle: saline + alcohol
  T/C: 91 % of control and 110 % of control
dose: 100.0 micrograms/kg/injection, schedule: Q01DX009 (ip), vehicle: saline + alcohol
  T/C: 91 % of control and 95 % of control

## COC(=O)C1(Cc2ccccc2)CCCC1(C#N)O[Si](C)(C)C (stereo not given)
dose: 12.5 mg/kg/injection, schedule: Q04DX003 (ip), vehicle: saline with Tween-80
  T/C: 92 % of control
dose: 25.0 mg/kg/injection, schedule: Q04DX003 (ip), vehicle: saline with Tween-80
  T/C: 106 % of control
[15]
  T/C: 97 % of control

## CC1CN1C(=O)c1cc(C(=O)N2CC2C)cc(C(=O)N2CC2C)c1 (stereo not given)
dose: 8.25 mg/kg/injection, schedule: Q04DX003 (ip), vehicle: saline with Tween-80
  T/C: 113 % of control
dose: 16.5 mg/kg/injection, schedule: Q04DX003 (ip), vehicle: saline with Tween-80
  T/C: 117 % of control
dose: 37.5 mg/kg/injection, schedule: Q01DX009 (ip), vehicle: saline with Tween-80
  T/C: 166 % of control
[9]
  T/C: 163 % of control
dose: 66.0 mg/kg/injection, schedule: Q04DX003 (ip), vehicle: saline
  T/C: 86 % of control
dose: 150.0 mg/kg/injection, schedule: Q04DX003 (ip), vehicle: saline
  T/C: 86 % of control

## COc1ccc(C(=S)N2CCN(c3ccccc3)CC2)cc1
[9]
  T/C: 95 % of control
[10]
  T/C: 100 % of control
[11]
  T/C: 95 % of control
